Experiments:
human cell lines = experiment: Human cell line viability with BCL2 inhibitors (CellTiter-Glo, GI50); assay type: cell-based; conditions: 96 h
Description: Human cell lines were seeded in triplicate in white, flat-bottomed 96-well plates at 2000 cells/well. […] Drug was added again at 48 h to maintain the desired final concentration. After 96 h of treatment, cell viability was measured using Cell Titer Glo (CTG) assay (Promega, Madison, Wis., USA) and plates were read on a luminometer. Normalized, transformed dose response curves were generated and analyzed using GraphPad Prism (GraphPad, La Jolla, Calif., USA) to determine GI50 for each compound (see, FIG. 13). Error bars represent mean+/−SEM.

[1] = tested on: RPM mice with Myc-driven SCLC; experiment: In vivo drug study in RPM mice (microCT tumor volume, survival); parameters: species or system mouse
Description: Alisertib (MLN8237, ApexBio, dissolved in 10% 2-hydroxy-beta-cyclo-dextrin and 1% sodium bicarbonate) was given 20 mg/kg twice daily by oral gavage on a schedule of 5 days on, 2 days off. […] For survival studies, endpoints include but are not limited to: difficulty breathing, eating or moving, obvious signs of pain or weight loss greater than 20% of initial body weight.
Mice were scanned for 34 sec under isoflurane anesthesia using a small animal Quantum FX microCT (PerkinElmer) at 45 μm resolution, 90 kV with 160 μA current. Images were acquired using PerkinElmer Quantum FX software and processed with Analyze 11.0 (AnalyzeDirect).
Scans were calibrated for Hounsfield Units (HU) by determining the mean value of “Bed” and “Air” for representative scans through the region of interest (ROI) tool and matching those values to their known HU (40 HU and −1000 HU, respectively) using the “Image Algebra” tool. Every image was then applied a 3×3×3 Median Filter from the “Spatial Filters” window. Thresholds of “Air” vs. “Dense Tissue” were established using the ROI and histogram tools. Every image was processed and normalized using the “Image Algebra” tool, followed by a 3×3×3 Median Filter from the “Spatial Filters” window. For Total Tumor Burden Analyses, the object map was created using the previously established thresholds; adjustments were made manually using “Spline Edit”, “Draw” and “Nudge Edit” tools. The object map was then morphed using the “Morphology” tool. The object map was made binary by using the threshold morphing tool. Then, the map was dilated 3 times using 5×5×5 Jack-shaped structuring elements. The holes were then filled on every 2D-orientation. The map was finally brought back to its original size using the “Erode” tool 3 times using 5×5×5 Jack-shaped structuring elements. The volumetric analyses were then performed in the ROI window using the pre-established thresholds and non-airspace was calculated using the formula: Non-airspace=1−(VolAir/ROIVol). For individual tumors, the 3D segmentation was performed semiautomatically using Analyze 11.0 “object extract tool”. Adjustments were made manually using the “Spline Edit”, “Draw” and “Nudge Edit” tools. The tumor segmentation was then processed using the semi-automatic tools “fill holes” and the object was propagated and smoothed in the axial, transverse and coronal planes. Volume quantification was obtained using the ROI tool as for total tumor burden analyses.
Total tumor volume was quantified relative to total air volume as a comprehensive measurement of treatment impact. […] The percent change in total tumor volume was analyzed at Day 19 (or at the time of death, if sooner) compared to Day 0 in each treatment group by waterfall plot.

AURKA = experiment: Immunoblot of Aurora kinase inhibition in treated cells; assay type: cell-based; conditions: concentrations in the range of the GI50-value, mouse and human cells
RPM cells = experiment: Cell cycle analysis (PI staining, flow cytometry); assay type: cell-based, mouse; conditions: 48 hr
Description: Cell cycle analysis. Cells were treated with indicated concentrations of alisertib (MLN8237, Selleckchem, Houston, Tex.) in 6-well plates and harvested with trypsin, washed twice in PBS, and 1×10^6 cells were fixed in ice-cold 70% ethanol overnight. Cells were washed 2× in PBS/1% BSA, treated with 100 μg/mL RNase for 10 min at 37° C., then stained with 25 μg/mL propidium iodide (PI) overnight at 4 C. Cells were analyzed on a BD FACScan flow cytometer and cell cycle analysis excluding cell doublets was performed using FlowJo software.

[2] = tested on: human SCLC cell lines infected with Bcl-2 vector; experiment: Viability of human SCLC cell lines overexpressing BCL2; assay type: cell-based; conditions: human SCLC cell lines with pMSCV PIG Bcl-2 vs empty vector
Description: HEK293T cells were transfected with pMSCV PIG (Addgene Plasmid #21654) empty vector, or pMSCV PIG with an insert that encodes the human Bcl-2 gene in addition to pCMV-VSVG and pCMV delta R8.2 plasmids using TransIT-LT1 (Minis). Virus was collected at 48 and 72 hr post-transfection. Human SCLC cell lines were infected with viral supernatant. Infected cells were selected with puromycin for several days until all uninfected cells were killed by puromycin. […] Cell viability assays were carried out as previously described, with the addition of Alisertib+/−0.5 uM ABT-199 (ApexBio) using the infected human cell lines described above. Cell viability assays were carried out as previously described, with the addition of Alisertib+/−0.5 uM ABT-199 (ApexBio) using the infected human cell lines described above.

human SCLC cell lines = experiment: Drug screening of human SCLC cell lines (CellTiter-Glo viability, GI50); assay type: cell-based; conditions: 17 human SCLC cell lines, 72-96 hr; adjusted p: etoposide 0.038, alisertib 0.001, barasertib 0.022
Description: Drug screening. Human SCLC cell lines were cultured in RPMI or HITES as described before (Sos et al., 2012). […] After 96 hr, cell viability was analyzed using CTG reagent. […] For PF-670462 (Apexbio), MS436 (MedChem Express), barasertib/1152-HQPA (Apexbio), alisertib/MLN8237 (Apexbio) and milciclib/PHA-848125 (MedChem Express), all dissolved in DMSO, indicated cell lines were screened using the same protocol in 384-well format with 500 (adherent) or 5000 (suspension) cells per well (25 ml) and treated using a robotic system (CyBio CyBi well vario). Upon treatment, cells were incubated for 72 hr prior to addition of CTG reagent. Each cell line and concentration was analyzed in quadruplicate per experiment with n=3 independent trials.

AURKB = molecular target: T1, AURKB (Homo sapiens, UniProt Q96GD4); experiment: Immunoblot of Aurora kinase inhibition in treated cells; assay type: cell-based; conditions: concentrations in the range of the GI50-value, mouse and human cells
T1 construct: Whole cell lysates analyzed by immunoblot for indicated antibodies; endogenous in cells; host or cells: GLC2 (human SCLC)
Description: Immunoblot. For primary lung tumor lysates, mouse lung tumors were micro-dissected under sterile conditions, flash frozen and stored at −80° C. until use. Approximately 20-40 mg tumor pieces were disrupted and lysed to homogeneity with disposable pestles and cordless motor (VWR) in 200 μl RIPA buffer supplemented with protease inhibitors (Roche complete mini) and sodium orthovanadate (Sigma). Lysates are centrifuged at 13000 rpm for 15 minutes and supernatants are transferred to new tubes. For cell line lysates, total protein lysates are prepared as previously described, separated via SDS-PAGE and transferred to a PVDF membrane (Oliver et al., 2011). Membranes were blocked for 1 hr in 5% milk or 5% BSA, followed by overnight incubation with primary antibodies at 4° C. Membranes were washed for 6×5 min at room temperature in TBS-T. Mouse and rabbit HRP-conjugated secondary antibodies (Jackson ImmunoResearch, 1:10,000) were incubated for 1 hr at room temperature followed by washing 6×5 min at room temperature in TBS-T. For detection, membranes were exposed to WesternBright HRP Quantum substrate (Advansta) and detected on Hyblot CL film (Denville Scientific Inc). […]

RPM tumors = experiment: IHC and histology of tumors of treated RPM mice; assay type: in vivo, mouse
Description: Sections were dewaxed, rehydrated and subjected to high temperature antigen retrieval, 20 min boiling in a pressure cooker in 0.01 M citrate buffer, pH 6.0. Slides were blocked in 3% H202 for 15 min, blocked in 5% goat serum in PBS/0.1% Tween-20 (PBS-T) for 1 hr, and stained overnight in blocking buffer with primary antibodies. A HRP conjugated secondary antibody (Vector Laboratories) was used at 1:200 dilution in PBS-T, incubated for 45 min at room temperature, followed by DAB staining (Vector Laboratories). All staining was performed with Sequenza coverplate technology. Mouse on Mouse (M.O.M.) Basic Kit (Vector Laboratories) was used for staining with BrdU and Ki67 mouse primary antibodies. Tris buffered saline with Tween-20 (TBS-T) was used instead of PBS-T for phospho-protein antibodies. […]
For automated image analysis, IHC-stained slides were digitally scanned with the Aperio AT2 Scanscope and whole slides images were quantitatively analyzed with image analysis nuclear algorithm using Halo digital imaging analysis software (Indica Labs, NM, USA). […] Results are expressed as percent positive cells per tumor area.

[3] = tested on: MYC-high vs. MYC-low human SCLC cell lines; conditions: 68 human SCLC cell lines binned by MYC expression, data of Polley et al., 2016; cited from earlier work
[4] = tested on: RPM mouse SCLC cell lines; experiment: Mouse cell viability and proliferation assays (CellTiter-Glo, GI50); assay type: cell-based; conditions: 96 hrs; for GI50: RPM cell lines (n=7)
Description: Mouse cell viability and proliferation assays. Cells were seeded in triplicate (1500/well) in white, flat-bottom 96-well plates. […] After 96 hrs of treatment, cell viability was measured using Cell Titer Glo (CTG, Promega, Madison, Wis., USA) on a luminometer. Normalized, transformed dose response curves were generated and analyzed using GraphPad Prism (GraphPad, La Jolla, Calif., USA) to determine GI50 for each compound. […] Confluence percentage at each time point was calculated by the Essen IncuCyte software.

relapsed SCLC = conditions: monotherapy, relapsed SCLC (Melichar et al., 2015); cited from earlier work
MYC = MYC protein level and stability (immunoblot, cycloheximide); assay type: cell-based; conditions: mouse or human cells, also after cycloheximide block of protein synthesis
Description: Alternatively, cell lysates were prepared using RIPA buffer supplemented with protease inhibitors (Roche complete mini) and benzonase (Millipore)), separated on 4-20% Tris-glycine SDS-PAGE gels (Invitrogen), and transferred to PVDF-FL membrane (Millipore). Membranes were blocked using Li-Cor blocking buffer (1:10 in TBS) and incubated with primary antibodies in blocking solution with 0.2% Tween 20 overnight at 4° C. Prior to detection with a near-IR imaging system (Li-Cor Odyssey), membranes were washed in TBS-T, incubated with secondary antibodies and washed in TBS-T. For total Aurora A in FIG. 6H, the chemiluminescent signal (ECL, GE Healthcare) was captured with a CCD-camera (BioRad Geldoc XR+). […]
Protein stability cycloheximide (CHX) experiments. […] Protein lysates were prepared using RIPA buffer as described above, separated on 4-20% Tris-glycine gels (Invitrogen), and analyzed by immunoblot against Myc and Hsp90. Signals were quantified using Li-Cor Image Studio (Li-Cor Biosciences) and ratios of Myc/Hsp90 normalized to the 0 min time point. […]

T1 sequence (Q96GD4 whole entry): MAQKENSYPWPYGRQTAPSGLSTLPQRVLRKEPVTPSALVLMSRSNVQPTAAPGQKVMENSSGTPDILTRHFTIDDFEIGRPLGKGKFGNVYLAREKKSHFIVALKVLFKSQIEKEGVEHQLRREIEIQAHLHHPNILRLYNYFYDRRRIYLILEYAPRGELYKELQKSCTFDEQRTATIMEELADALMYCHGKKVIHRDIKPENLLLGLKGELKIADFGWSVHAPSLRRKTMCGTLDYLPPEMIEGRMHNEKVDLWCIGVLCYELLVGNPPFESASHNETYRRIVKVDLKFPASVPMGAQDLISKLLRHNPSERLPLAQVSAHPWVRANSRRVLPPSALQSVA

SMILES: CC1(C)CCC(CN2CCN(c3ccc(C(=O)NS(=O)(=O)c4ccc(NCC5CCOCC5)c([N+](=O)[O-])c4)c(Oc4cnc5[nH]ccc5c4)c3)CC2)=C(c2ccc(Cl)cc2)C1 [ABT-199]
- sensitivity (GI50) to BCL2 inhibition relative to MYC expression (human cell lines): MYC expression anti-correlates with BCL2 expression and sensitivity to BCL2 inhibition

SMILES: CN(C)CC[C@H](CSc1ccccc1)Nc1ccc(S(=O)(=O)NC(=O)c2ccc(N3CCN(Cc4ccccc4-c4ccc(Cl)cc4)CC3)cc2)cc1[N+](=O)[O-] [ABT-737]
- sensitivity (GI50) to BCL2 inhibition relative to MYC expression (human cell lines): MYC expression anti-correlates with BCL2 expression and sensitivity to BCL2 inhibition

SMILES: COc1cc(Nc2ncc3c(n2)-c2ccc(Cl)cc2C(c2c(F)cccc2OC)=NC3)ccc1C(=O)O [alisertib]
- increase of median survival compared to untreated animals ([1]; Day 0 = start of treatment): 10 days
- mice that survived 30 days ([1]; PBS 0%): 8%
- tumor growth (total tumor volume by microCT) ([1]; three cycles, alisertib 20 mg/kg twice daily 5 days on 2 off, cisplatin 5 mg/kg + etoposide 10 mg/kg once weekly): modest delay in tumor growth
- overall response (percent change in total tumor volume Day 0-19) compared to untreated animals ([1]; waterfall plot): did not impact overall response
- inhibition of AURKA (AURKA): dose-dependent inhibition
- subG1 cells (RPM cells; RPM cells compared to KP, RPP and RP cells): greater increase in subG1 cells
- G2/M phase cells (RPM cells; RPM cells): dose-dependent increase in G2/M phase cells
- Alisertib sensitivity on BCL2 overexpression [2]: BCL2 overexpression promotes Alisertib resistance
- drug response (GI50) of MYC-driven SCLCs versus those driven by MYCL or MYCN (human SCLC cell lines): significantly more responsive
- inhibition of AURKB (AURKB): dose-dependent inhibition
- cells with polyploidy and aberrant mitoses (RPM tumors; alisertib 20 mg/kg twice daily): dramatic enrichment
- NEUROD1+ cells by IHC (RPM tumors; compared to other treatment groups): significantly enriched
- efficacy (IC50) in MYC-high versus MYC-low cell lines [3]: increased efficacy in MYC-high cell lines
- sensitivity of RPM cells compared to adenocarcinoma cell lines and non-MYC-driven cells (GI50) ([4]; RPM vs RPP, RP, KP cell lines): particularly sensitive
- patients exhibiting partial responses (relapsed SCLC): ~20%
- MYC protein level (MYC): did not primarily lead to reduced MYC protein

SMILES: N.N.[Cl][Pt][Cl] [cisplatin]
- GI50 [4]: high micromolar

SMILES: COc1cc([C@@H]2c3cc4c(cc3[C@@H](O[C@@H]3O[C@@H]5CO[C@@H](C)O[C@H]5[C@H](O)[C@H]3O)[C@H]3COC(=O)[C@H]23)OCO4)cc(OC)c1O [etoposide]
- GI50 [4]: nanomolar

From patent US12188095B2, “Methods and compositions for identifying and treating patients with small cell lung cancer” (UNIVERSITY OF UTAH RESEARCH FOUNDATION, priority 2016, dated 2025)
